This passage reports IC50 results from patent US20260364057A1, “AMIDE COMPOUND, AND COMPOSITION AND USE THEREOF” (SIMCERE ZAIMING PHARMACEUTICAL CO., LTD., priority 2022, published 2026).

Usually IC50 stands for the concentration that gives 50% inhibition.

One test relates to OVCAR3 cells. Kind of test: Inhibition of proliferation of OVCAR-3 cells (Cell-Titer Glo). As to conditions: Homo sapiens, OVCAR-3, 72 h, 3 days, 1000 cells/well. Type of test: cell-based. An excerpt:
Test Example 2. Test on Inhibition of Proliferation of OVCAR-3 Cells by Compounds of Present Disclosure
Cell and material: The human ovarian cancer cell line OVCAR3 was purchased from ATCC (Cat. No. HTB-161™), RPMI 1640 medium (Gibco #A1049101), penicillin-streptomycin (Gibco #15140122), and 0.25% Trypsin-EDTA (Gibco #25200056) were purchased from Gibco (U.S.), bovine insulin (Yeasen #40107ES60) was purchased from Yeasen, 384-well plates (Corning #CLS3765) was purchased from Corning (U.S.), and Cell-Titer Glo reagent (Promega #G7568) was purchased from Promega (U.S.).
Cell culture: OVCAR3 cells were cultured in RPMI 1640 complete medium (RPMI 1640 medium containing 20% fetal bovine serum, […] bovine insulin, and 1% penicillin-streptomycin) in an incubator (37 °C, 5% CO2), and the cells could be used in experiments when in the logarithmic growth phase.
Cell proliferation activity test: The Cell-Titer Glo reagent was used to test the compound for inhibition of proliferation of the OVCAR3 cell strain. The compound formulated with DMSO and pure DMSO (control) were each added to a 384-well plate using an Echo instrument; the compound was subjected to 3-fold serial dilution starting from 30 μM to obtain 11 concentration points, and the volume of the compound or DMSO added was 100 nL.
OVCAR3 cells were digested and resuspended in RPMI 1640 complete medium, and the suspension was added to a 384-well plate (1000 cells/50 μL/well) to be well mixed with the compound. The mixture was incubated in an incubator (37 °C, 5% CO2) for 3 days. The Cell-Titer Glo reagent was added at 25 µL/well, and the resulting mixture was well mixed by shaking and then incubated for 10 min. The Cell-Titer Glo readings were measured with a Multimode Plate Reader (brand: PerkinElmer; model: SIC-PV-018).
A negative control group (Bottom) was set, and the negative control group was medium wells with 0.2% DMSO added and was defined as 100% proliferation inhibition; the positive control group (Top) was OVCAR3 cell wells with 0.2% DMSO added.
The percent proliferation inhibition (% Inhibition) was calculated, and the curves were fit using the four-parameter equation, Y=Bottom+(Top−Bottom)/(1+(IC50/X)^HillSlope), to obtain the proliferation inhibition IC50 of the compound. • Percent inhibition: % Inhibition=(1−(Signal−Bottom)/(Top−Bottom))×100%. • Signal: Cell-Titer Glo reading of wells with compound added; • Bottom: Cell-Titer Glo reading of negative control wells; • Top: Cell-Titer Glo reading of positive control wells.

The next test deals with T1, Human KIF18A (1-376aa) (Homo sapiens, UniProt Q8NI77).
T1 construct: Human KIF18A (1-376aa) protease used in the experiments; purchased Shanghai Panchao Biotechnology Co., Ltd
T1 sequence (Q8NI77 1-376): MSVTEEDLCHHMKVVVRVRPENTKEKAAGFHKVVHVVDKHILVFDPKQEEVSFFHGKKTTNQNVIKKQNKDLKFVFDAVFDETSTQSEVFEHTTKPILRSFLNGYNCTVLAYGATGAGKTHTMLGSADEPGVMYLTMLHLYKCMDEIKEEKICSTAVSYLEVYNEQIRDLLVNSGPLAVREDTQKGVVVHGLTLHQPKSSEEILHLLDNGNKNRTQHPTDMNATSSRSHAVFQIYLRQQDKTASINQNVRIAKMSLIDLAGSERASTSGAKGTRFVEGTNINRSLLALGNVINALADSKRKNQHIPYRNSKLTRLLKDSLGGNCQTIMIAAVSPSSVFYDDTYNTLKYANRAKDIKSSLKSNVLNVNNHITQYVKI
As to the kind of experiment: KIF18A enzyme activity assay (ADP-Glo). Type of test: biochemical. As to conditions: microtubule 50 μg/mL, ATP (Km 70 μM), room temperature, 15 min, read-out: KIF18A inhibitory activity IC50. How it is done:
Test Example 1: KIF18A Enzyme Activity Assay
Based on the ADP-Glo™ Kinase Assay, the ADP amount generated in the reaction was detected to reflect the enzyme activity of KIF18A.
Human KIF18A (1-376aa) […] used in the experiments, expressed by Shanghai Panchao Biotechnology Co., Ltd., was stored at −80 °C (no more than 5 freeze-thaw cycles).
The assay kit (ADP-Glo™ Kinase Assay) was purchased from Promega (Cat. No. V9101) and stored at −30 °C. The kit detects the enzyme activity by measuring ADP generated in enzyme reaction. The KIF18A enzyme and ATP generate ADP. The remaining ATP in this reaction is consumed by the ADP-Glo reagent, while the ADP generated by the KIF18A enzyme reaction is converted back to ATP by the assay reagent. The ATP then reacts with luciferin in the presence of Ultra-Glo™ luciferase, producing luminescence. The luminescent signal is positively correlated with the activity of the KIF18A enzyme.
Compounds were each subjected to 3-fold serial dilution starting from 10 μM to obtain 10 concentration points. The compounds and pure DMSO (control) were pipetted into wells of a 384-well plate using an Echo instrument, and the total volume of compound and DMSO was 100 nL; sample concentrations of gradient dilution were obtained by the instrument based on different ratios. Preparation of a KIF18A enzyme reaction buffer: […], 10 mM MgCl2, 0.01% Pluronic F-68, 1 μM Taxol, and 50 μg/mL Microtubule. KIF18A and the enzyme reaction buffer were mixed, and then the mixed solution was added to the 384-well plate and incubated at room temperature for 15 min. ATP (Km 70 μM) was then added to the mixed solution, and the mixed solution was incubated at room temperature for 15 min. 10 μL of ADP-Glo™ Reagent was well mixed with 10 μL of the mixed solution, and the mixture was incubated at room temperature for 40 min. Finally, 20 μL of ADP-Glo™ Detection Reagent was added, and the mixture was incubated at room temperature for 30 min. The chemiluminescent signal in each well was measured using an Envision plate reader (PerkinElmer, emission wavelength: 400-700 nm). In the experiment, 1 column of wells with no compound and no enzyme (chemiluminescence value was taken as [RLU]background) and 1 column of wells with enzyme but no compound (chemiluminescence value was taken as [RLU]enzyme) were provided. The chemiluminescence value of the compound adding group was taken as [RLU]cpd. The inhibition rate of the compound on […] was calculated according to the following equation: inhibition rate (%)=([RLU]enzyme−[RLU]cpd)/([RLU]enzyme−[RLU]background)×100%, and the inhibitory activity IC50 value of the compound on the enzyme activity was calculated using a four-parameter Logistic Model method. In the following equation, x represents the logarithmic form of the concentration of compound, and f (x) represents an effect value (inhibition rate of enzyme activity at the concentration): F(x)=(A+((B−A)/(1+((C/x)^D)))). A. B, C, and D are four parameters.
A general note: ADP-Glo turns the ADP formed in a reaction into a luminescent signal.

Turning to `O=C(Nc1cccc2c1nc1n2CCCOC1)c1ccc(NS(=O)(=O)CCO)cc1N1CCC2(CC1)CC2` [Compound 54], the IC50 in the test on OVCAR3 cells was 21 nM; at Human KIF18A (1-376aa) it was < 200 nM.

Consider `O=C(Nc1cc2c(c(N3CCC(F)(F)CC3)n1)OCC2)c1ccc(NS(=O)(=O)CCO)cc1N1CCC2(CC1)CC2` [Compound 65], for which the IC50 is 16.7 nM in the test on OVCAR3 cells and < 500 nM on Human KIF18A (1-376aa).

On to `COc1ccc(NC(=O)c2ccc(NS(=O)(=O)CCO)cc2N2CCC3(CC2)CC3)c2nc3n(c12)CCCCC3` [Compound 96], for which the IC50 was 25 nM in the test on OVCAR3 cells and < 200 nM at Human KIF18A (1-376aa).

With `O=C(Nc1cccc2c1cc1n2CCCCC1)c1ccc(NS(=O)(=O)CCO)cc1N1CCC2(CC1)CC2` [Compound 115], the IC50 in the test with OVCAR3 cells was 23 nM; at Human KIF18A (1-376aa), < 200 nM.

`O=C(Nc1cc2ccnn2c(N2CCC(F)(F)CC2)n1)c1ccc(NS(=O)(=O)CCO)cc1N1CCC2(CC1)CC2` [Compound 109]: the IC50 with OVCAR3 cells is 37.4 nM; at Human KIF18A (1-376aa) it was < 200 nM.

In the case of `N#Cc1ccc(NC(=O)c2ccc(NS(=O)(=O)CCO)cc2N2CCC3(CC2)CC3)c2nc3n(c12)CC1CC31` (stereo not drawn) [Compound 92], the IC50 in the test with OVCAR3 cells is 48.4 nM; on Human KIF18A (1-376aa) it was < 200 nM.

Take `O=C(Nc1cc(N2CCC(F)(F)CC2)c2nccn2c1)c1ccc(NS(=O)(=O)CCO)cc1N1CCC2(CC1)CC2` [Compound 80]: the IC50 is 24 nM in the test on OVCAR3 cells and < 200 nM on Human KIF18A (1-376aa).

For the compound `CC1OCCn2c1nc1c(NC(=O)c3ccc(NS(=O)(=O)CCO)cc3N3CCC4(CC3)CC4)cccc12` (stereo not drawn) [Compound 56], the 50% inhibitory concentration (IC50) in the test with OVCAR3 cells was 31.2 nM; at Human KIF18A (1-376aa), < 200 nM.

Consider `O=C(Nc1cccc2c1nc1n2CCCCCC1)c1ccc(NS(=O)(=O)CCO)cc1N1CCC2(CC1)CC2` [Compound 61], for which the results for the IC50 in the test with OVCAR3 cells and at Human KIF18A (1-376aa) were 77 nM and < 200 nM, respectively.

For the compound `O=C(Nc1cc2ccoc2c(N2CCC(F)(F)CC2)n1)c1ccc(NS(=O)(=O)CCO)cc1N1CCC2(CC1)CC2` [Compound 106], the IC50 in the test with OVCAR3 cells is 15.7 nM; on Human KIF18A (1-376aa) it was < 200 nM.

As for `O=C(Nc1cc2c(c(N3CCC(F)(F)CC3)n1)COC2)c1ccc(NS(=O)(=O)CCO)cc1N1CCC2(CC1)CC2` [Compound 67], the values for the IC50 in the test on OVCAR3 cells and on Human KIF18A (1-376aa) were 70 nM and < 200 nM, respectively.

As for `O=C(Nc1cccc2c1nc1n2CCCC1)c1ccc(S(=O)(=O)NCCO)cc1N1CCC2(CC1)CC2` [Compound 39], the IC50 was 75.5 nM in the test with OVCAR3 cells and < 200 nM on Human KIF18A (1-376aa).

With `O=C(Nc1cccc2c3c(nn12)CCCCC3)c1ccc(NS(=O)(=O)CCO)cc1N1CCC2(CC1)CC2` [Compound 64], the 50% inhibitory concentration (IC50) was 65.7 nM with OVCAR3 cells and < 200 nM on Human KIF18A (1-376aa).

The compound `O=C(Nc1cc2nccn2c(N2CCC(F)(F)CC2)n1)c1ccc(NS(=O)(=O)CCO)cc1N1CCC2(CC1)CC2` [Compound 14] had an IC50 in the test with OVCAR3 cells of 77.6 nM.

On to `Cn1cc(NC(=O)c2ccc(NS(=O)(=O)CCO)cc2N2CCC3(CC2)CC3)nc(N2CCC(F)(F)CC2)c1=O` [Compound 58], for which the IC50 is 8 nM with OVCAR3 cells and < 200 nM at Human KIF18A (1-376aa).

Turning to `O=C(Nc1cc2c(c(N3CC4C(C3)C4(F)F)c1)OCC2)c1ccc(NS(=O)(=O)CCO)cc1N1CCC2(CC1)CC2` (stereo not drawn) [Compound 114], the half-maximal inhibitory concentration (IC50) with OVCAR3 cells is 10.7 nM; on Human KIF18A (1-376aa), < 200 nM.

As to `O=C(Nc1cccc2c1nc1n2CC2CCC1C2)c1ccc(NS(=O)(=O)CCO)cc1N1CCC2(CC1)CC2` (stereo not drawn) [Compound 35], the IC50 in the test on OVCAR3 cells is 88 nM; at Human KIF18A (1-376aa) it was < 200 nM.

Turning to `O=C(Nc1cccc2c1nc1n2CC2CC1O2)c1ccc(NS(=O)(=O)CCO)cc1N1CCC2(CC1)CC2` (stereo not drawn) [Compound 59], the IC50 was 23.3 nM with OVCAR3 cells and < 200 nM on Human KIF18A (1-376aa).

As to `CS(=O)(=O)Nc1ccc(C(=O)Nc2cn3ccnc3c(N3CCC(F)(F)CC3)n2)c(N2CCC3(CC2)CC3)c1` [Compound 105], the IC50 in the test with OVCAR3 cells was 14.9 nM; on Human KIF18A (1-376aa), < 200 nM.

For the compound `O=C(Nc1cccc2c1nc1n2CCC(F)(F)CC1)c1ccc(NS(=O)(=O)CCO)cc1N1CCC2(CC1)CC2` [Compound 49], the half-inhibitory concentration (IC50) was 49.6 nM in the test with OVCAR3 cells and < 200 nM at Human KIF18A (1-376aa).
